# pIC50: −log10 of the molar value. Numbered stars: 1 amine (or outer) side, 2 acyl side, 3 side chain; on linkers, the order of the positions; unused ones are H or OH. Bridge positions count the residues as written; N and C are the ends. Square brackets hold non-standard residues; d marks the D form. Peptide text beside a SMILES is read from it. * marks the point of attachment. hPhe(3-Cl-4-CF3) = N[C@@H](CCc1ccc(C(F)(F)F)c(Cl)c1)C(=O)O; hPhe(3-F,4-CF3) = N[C@@H](CCc1ccc(C(F)(F)F)c(F)c1)C(=O)O; NEtPhe(4-CF3) = CCN[C@@H](Cc1ccc(C(F)(F)F)cc1)C(=O)O; NMePhe(4-CF3) = CN[C@@H](Cc1ccc(C(F)(F)F)cc1)C(=O)O; hPhe(4-CF3) = N[C@@H](CCc1ccc(C(F)(F)F)cc1)C(=O)O; NMePhe(3,4-F2) = CN[C@@H](Cc1ccc(F)c(F)c1)C(=O)O; NMePhe(3-Cl) = CN[C@@H](Cc1cccc(Cl)c1)C(=O)O; NMePhe(4-Cl) = CN[C@@H](Cc1ccc(Cl)cc1)C(=O)O; NMedβ3hAla = C[C@H](CC(=O)[*:2])N(C)[*:1]; NMeGly(cPent) = CN[C@H](C(=O)O)C1CCCC1; Pro(4,4-F2) = O=C(O)[C@@H]1CC(F)(F)CN1; NMeCha = CN[C@@H](CC1CCCCC1)C(=O)O; Hyp = O=C(O)[C@@H]1C[C@@H](O)CN1; NMeChg = CN[C@H](C(=O)O)C1CCCCC1; NMeF = CN[C@@H](Cc1ccccc1)C(=O)O; NMeI = CC[C@H](C)[C@H](NC)C(=O)O; NMeD = CN[C@@H](CC(=O)O)C(=O)O; NMeL = CN[C@@H](CC(C)C)C(=O)O; NMeV = CN[C@H](C(=O)O)C(C)C; d(β3hA) = C[C@@H](N)CC(=O)O; NMeA = CN[C@@H](C)C(=O)O; NMeAib = CNC(C)(C)C(=O)O; Piperidide = C1CCN(*)CC1; Pyrrolidide = C1CCN(*)C1; dNMeA = CN[C@H](C)C(=O)O; Ac5c = NC1(C(=O)O)CCCC1; Aze = O=C(O)[C@@H]1CCN1; Ac4c = NC1(C(=O)O)CCC1; Sar = CNCC(=O)O
# Target: protein-protein interaction between Kras and SOS1 (biotin-tagged human Kras loaded with GDP, His-tagged human SOS1) (Homo sapiens (Human), UniProt P01116, G12D)
# Assay: Protein-protein interaction inhibition between Kras and SOS1 (KrasG12D-SOS PPI) using AlphaScreen;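 further: kras produced in E. coli, Ni-coupled donor beads and streptavidin acceptor beads, excitation 680 nm with emission detected at 520–620 nm via singlet oxygen transfer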
# Format: biochemical
# Settings: AlphaScreen; biotin-tagged human Kras loaded with GDP, His-tagged human SOS1; read-out: KRAS G12D-SOS PPI IC50
row,SMILES,pIC50
1,CC[C@H](C)[C@@H]1NC(=O)[C@H](C)N(C)C(=O)C[C@@H](C(=O)N2CCCCC2)N(C)C(=O)[C@H](C(C)C)N(C)C(=O)C2(CCCC2)NC(=O)[C@H](Cc2cccc(Cl)c2)N(C)C(=O)[C@H](CCc2ccc(C(F)(F)F)c(Cl)c2)NC(=O)CN(C)C(=O)[C@H](CC2CCCCC2)N(C)C(=O)CN(C)C(=O)CN(C)C1=O [Compound 282] ([NMeA]I[Sar][Sar][NMeCha][Sar][hPhe(3-Cl-4-CF3)][NMePhe(3-Cl)][Ac5c][NMeV][NMeD]-Piperidide; lactam N-11),7.03
2,CC[C@H](C)[C@@H]1NC(=O)[C@H](C)N(C)C(=O)C[C@@H](C)NC(=O)[C@H](C2CCCCC2)N(C)C(=O)C(C)(C)N(C)C(=O)[C@@H]2CCCN2C(=O)[C@H](CCc2ccc(C(F)(F)F)c(Cl)c2)NC(=O)CN(C)C(=O)[C@H](CC2CCCCC2)N(C)C(=O)[C@@H]2CCN2C(=O)[C@H](C)N(C)C1=O [Compound 291] (cyclo([Aze][NMeCha][Sar][hPhe(3-Cl-4-CF3)]P[NMeAib][NMeChg][d(β3hA)][NMeA]I[NMeA])),7.26
3,CC[C@H](C)[C@@H]1NC(=O)[C@H](CC(C)C)N(C)C(=O)C[C@@H](C(=O)N2CCCCC2)N(C)C(=O)[C@H](C2CCCCC2)N(C)C(=O)C2(CCCC2)NC(=O)[C@H](C)N(C)C(=O)[C@H](CCc2ccc(C(F)(F)F)c(Cl)c2)NC(=O)CN(C)C(=O)[C@H](CC2CCCCC2)N(C)C(=O)CN(C)C(=O)CN(C)C1=O [Compound 294] ([NMeL]I[Sar][Sar][NMeCha][Sar][hPhe(3-Cl-4-CF3)][NMeA][Ac5c][NMeChg][NMeD]-Piperidide; lactam N-11),8.85
4,CCO[C@@H]1C[C@H]2C(=O)NC3(CCC3)C(=O)N(C)[C@@H](C3CCCCC3)C(=O)N(C)[C@H](C)CC(=O)N(C)[C@@H](CC(C)C)C(=O)N[C@@H]([C@@H](C)CC)C(=O)N(C)[C@@H](C)C(=O)N3CC[C@H]3C(=O)N(CC)[C@@H](Cc3ccc(C(F)(F)F)cc3)C(=O)N(C)CC(=O)N[C@@H](CCc3ccc(C(F)(F)F)c(Cl)c3)C(=O)N2C1 [Compound 296] (cyclo([Ac4c][NMeChg][NMedβ3hAla][NMeL]I[NMeA][Aze][NEtPhe(4-CF3)][Sar][hPhe(3-Cl-4-CF3)][Hyp](Et))),7.26
5,"CC[C@H](C)[C@@H]1NC(=O)[C@H](C)N(C)C(=O)C[C@@H](C)NC(=O)[C@H](C2CCCC2)N(C)C(=O)C2(CCCC2)NC(=O)[C@@H]2CCCN2C(=O)[C@H](CCc2ccc(C(F)(F)F)c(Cl)c2)NC(=O)[C@@H](C)N(C)C(=O)[C@H](Cc2ccc(F)c(F)c2)N(C)C(=O)[C@@H]2CCN2C(=O)[C@H](C)N(C)C1=O [Compound 310] (cyclo([Ac5c][NMeGly(cPent)][d(β3hA)][NMeA]I[NMeA][Aze][NMePhe(3,4-F2)][dNMeA][hPhe(3-Cl-4-CF3)]P))",7.02
6,"CC[C@H](C)[C@@H]1NC(=O)[C@H](CC(C)C)N(C)C(=O)C[C@@H](C(=O)N2CCCC2)N(C)C(=O)[C@H]([C@@H](C)CC)N(C)C(=O)C2(CCCC2)NC(=O)[C@@H]2CCCN2C(=O)[C@H](CCc2ccc(C(F)(F)F)c(F)c2)NC(=O)CN(C)C(=O)[C@H](C2CCCC2)N(C)C(=O)[C@@H]2CCN2C(=O)[C@H](C)N(C)C1=O [Compound 313] ([NMeL]I[NMeA][Aze][NMeGly(cPent)][Sar][hPhe(3-F,4-CF3)]P[Ac5c][NMeI][NMeD]-Pyrrolidide; lactam N-11)",8.38
7,CC[C@H](C)[C@@H]1NC(=O)[C@H](CC(C)C)N(C)C(=O)C[C@@H](C)N(C)C(=O)[C@H](CC(C)C)NC(=O)C(C)(C)N(C)C(=O)[C@H](CC(C)C)NC(=O)[C@H](CCc2ccc(C(F)(F)F)cc2)NC(=O)CN(C)C(=O)[C@H](Cc2ccc(Cl)cc2)N(C)C(=O)CN(C)C(=O)CN(C)C1=O [Compound 315] (cyclo(I[Sar][Sar][NMePhe(4-Cl)][Sar][hPhe(4-CF3)]L[NMeAib]L[NMedβ3hAla][NMeL])),6.92
8,"CC[C@H](C)[C@@H]1NC(=O)[C@H](CC(C)C)N(C)C(=O)C[C@@H](C)N(C)C(=O)[C@H](C2CCCCC2)N(C)C(=O)C2(CCCC2)NC(=O)[C@@H]2CC(F)(F)CN2C(=O)[C@H](CCc2ccc(C(F)(F)F)c(Cl)c2)NC(=O)CN(C)C(=O)[C@H](Cc2ccc(C(F)(F)F)cc2)N(C)C(=O)[C@@H]2CCN2C(=O)[C@H](C)N(C)C1=O [Compound 319] (cyclo([Ac5c][NMeChg][NMedβ3hAla][NMeL]I[NMeA][Aze][NMePhe(4-CF3)][Sar][hPhe(3-Cl-4-CF3)][Pro(4,4-F2)]))",8.09
9,CCO[C@@H]1C[C@H]2C(=O)N(C)[C@@H](Cc3ccccc3)C(=O)N(C)[C@@H](CC(C)C)C(=O)N[C@H](C)CC(=O)N(C)[C@@H](C)C(=O)N[C@@H]([C@@H](C)CC)C(=O)N(C)CC(=O)N(C)CC(=O)N(C)[C@@H](Cc3ccc(Cl)cc3)C(=O)N(C)CC(=O)N[C@@H](CCc3ccc(C(F)(F)F)cc3)C(=O)N2C1 [Compound 322] (cyclo([Hyp](Et)[NMeF][NMeL][d(β3hA)][NMeA]I[Sar][Sar][NMePhe(4-Cl)][Sar][hPhe(4-CF3)])),7.51
10,CC[C@H](C)[C@@H]1NC(=O)[C@H](C)N(C)C(=O)C[C@@H](C)N(C)C(=O)[C@H](CC(C)C)NC(=O)C(C)(C)N(C)C(=O)[C@H](CC(C)C)NC(=O)[C@H](CCc2ccc(C(F)(F)F)cc2)NC(=O)CN(C)C(=O)[C@H](Cc2ccc(Cl)cc2)N(C)C(=O)CN(C)C(=O)CN(C)C1=O [Compound 323] (cyclo(I[Sar][Sar][NMePhe(4-Cl)][Sar][hPhe(4-CF3)]L[NMeAib]L[NMedβ3hAla][NMeA])),6.85

# Source: patent US20240148821A1, “PHARMACEUTICAL USE OF CYCLIC PEPTIDE COMPOUND” (CHUGAI SEIYAKU KABUSHIKI KAISHA, priority 2021, published 2024)
